US8101180B2, “Anti-IGF-IR and/or anti-insulin/IGF-I hybrid receptors antibodies and uses thereof” (Pierre Fabre Medicament, priority 2002, dated 2012)
“Also recorded” adds a separate entry of the source.

Tests used:
[1] = tested on: MCF-7 cells; assay: IGF1-induced proliferation of MCF-7 cells (3H thymidine incorporation); type: cell-based, human; settings: antibody 10 μg/ml; IGF-I 1 to 50 ng/ml
Procedure: The cell proliferation is evaluated by following the incorporation of ^3H thymidine. The commercial antibody αIR3 is used as a positive control of the experiment.
The cell proliferation is estimated by following on the β counter the incorporation of tritiated thymidine by the cells. The results are expressed as a proliferative index.

[2] = tested on: MCF-7 cells; assay: Cell cycle of MCF-7 cells with IGF1; type: cell-based, human; settings: MCF-7 cells, 24 hours
Procedure: The inhibition of the cell growth observed in vitro on the line MCF-7 should be manifested by an effect on the cell cycle. In order to reply to this question, 4·10^5 cells are inoculated into 6-well plates. […] After incubation for 24 hours, the cells are recovered for the study of the cell cycle.

[3] = tested on: IR; assay: Immunoprecipitation of IR from R−/IR-A and R−/IR-B cell lysates; type: binding
Text: (§1) The used cells for this study are listed thereafter: • R+: R− fibroblasts stably transfected with the IGF-I receptor (IGF-IR) cDNA • R−/IR-A: R− fibroblasts stably transfected with the insulin receptor isoform A (IR-A) cDNA • R−/IR-B:R− fibroblasts stably transfected with the insulin receptor isoform B (IR-B) cDNA • R+/IR-A: R− fibroblasts stably co-transfected with the IGF-I and the insulin receptor isoform A cDNA and, therefore, expressing hybrid receptors A (Hybrid-RsA) • R+/IR-B: R− fibroblasts stably co-transfected with the IGF-I and the insulin receptor isoform B cDNA and, therefore, expressing hybrid receptors B (Hybrid-RsB)
(§2) For the obtention of cellular lysat, cells were solubilized in RIPA buffer and 4 mg protein used for immunoprecipitation.
(§3) Following immunoprecipitation, the pellet was resuspended in 2× sample buffer and subjected to SDS-PAGE (7.5% polyacrylamide).
(§4) Filters were blotted as follows: Filters containing R+ lysates (and therefore only IGF-IR) with an anti-IGF-IR β-subunit (Santa Cruz). Filters containing lysates from all the remaining cells with an antibody anti-IR β-subunit (Santa Cruz).

[4] = tested on: MCF-7 cells; assay: Apoptosis of MCF-7 cells (Annexin V-FITC/DAPI flow cytometry); type: cell-based, human; settings: antibody 10 μg/ml + doxorubicin 2 μg/ml, 24 hours
Procedure: As indicated above, IGF-IR is capable of conferring protection against apoptosis when it is overexpressed on the surface of cells. […] In these experiments, the MCF-7 cells are inoculated at 2·10^4/cm^2 in Petri dishes and cultured for 24 h in RPMI without phenol red supplemented with 10% of fetal calf serum (FCS). The cells are then washed twice with PBS and put back into culture in medium with 0% FCS. They are allowed an adaptation time of 10 minutes at 37° C. before the addition of the antibodies at 10 μg/ml. After an extra 10 minutes at 37° C., recombinant IGF-I (Sigma) is added to the culture medium to a final concentration of 50 ng/ml. The cells are left at 37° C. again for one hour in order to allow the attachment of the antibodies and of the IGF-I. Finally, the doxorubicin (Sigma) is added to the culture medium at 2 μg/ml and the cells are incubated for 24 hours at 37° C.
The experiments have likewise been conducted with navelbine at a concentration of 10 μg/ml.
The analysis of the cell viability is carried out by flow cytometric analysis after labeling with the annexin V-FITC (20 minutes, 4° C.) and DAPI (2 μg/ml). The percentage of dead cells considered is the labeled population Annexin+/DAPI+. The antibody 5C2 is used as a control isotype.

[5] = tested on: A549 tumor; assay: A549 non-small cell lung tumor subcutaneous xenograft; type: in vivo, nude mice; settings: s.c. xenograft; for inhibition of A549 tumor growth in vivo, murine versus humanized antibody: 125 μg/dose twice per week i.p.
Procedure: Navelbine is a chemotherapy compound indicated in non-small cell cancer of the lung and in metastatic cancer of the breast. […] For this study, 5·10^6 A549 cells were grafted subcutaneously on the right flank of the mouse. Five days after the cell graft, the tumors are measurable and the treatments with MAb and/or navelbine are commenced. The MAb dose is always 250 μg/dose/mouse, twice per week, intra-peritoneally. Concerning navelbine, it will be administered at the maximum dose tolerated by the mouse or 10 mg/kg, intraperitoneally. For this treatment three injections will be carried out at intervals of 7 days. During the coadministrations, the two products are mixed before injection.
For this study, nude mice are grafted s.c. with 5·10^6 A549 cells. Five days after the cell graft, the tumors are measured and a homogeneous batch of mice in terms of tumor volume is formed. Starting from this batch, groups of 6 mice are generated at random.
To do this, 5·10^6 A549 cells were implanted subcutaneously in nude mice. Five days after this implantation, the tumors were measured and groups of 6 mice were formed. […] This granule is essential to the establishment of any E2-dependent human tumor in this animal species.
These conjugates are administered according to the same modes as the groups given the chemotherapy compounds alone; • the animals of the control batch are given injections of PBS, administered according to the same frequency.
The weight of the mice and the tumor volume are evaluated twice a week. The tumor volumes are calculated according to the formula: ½ (length·width·height).

[6] = tested on: Hybrid-R; assay: Immunoprecipitation of Hybrid-R from R+/IR-A and R+/IR-B cell lysates; type: binding
Text: as §1, §2, §3, §4

Chain of Hybrid-R (P08069 31-736 limits assumed): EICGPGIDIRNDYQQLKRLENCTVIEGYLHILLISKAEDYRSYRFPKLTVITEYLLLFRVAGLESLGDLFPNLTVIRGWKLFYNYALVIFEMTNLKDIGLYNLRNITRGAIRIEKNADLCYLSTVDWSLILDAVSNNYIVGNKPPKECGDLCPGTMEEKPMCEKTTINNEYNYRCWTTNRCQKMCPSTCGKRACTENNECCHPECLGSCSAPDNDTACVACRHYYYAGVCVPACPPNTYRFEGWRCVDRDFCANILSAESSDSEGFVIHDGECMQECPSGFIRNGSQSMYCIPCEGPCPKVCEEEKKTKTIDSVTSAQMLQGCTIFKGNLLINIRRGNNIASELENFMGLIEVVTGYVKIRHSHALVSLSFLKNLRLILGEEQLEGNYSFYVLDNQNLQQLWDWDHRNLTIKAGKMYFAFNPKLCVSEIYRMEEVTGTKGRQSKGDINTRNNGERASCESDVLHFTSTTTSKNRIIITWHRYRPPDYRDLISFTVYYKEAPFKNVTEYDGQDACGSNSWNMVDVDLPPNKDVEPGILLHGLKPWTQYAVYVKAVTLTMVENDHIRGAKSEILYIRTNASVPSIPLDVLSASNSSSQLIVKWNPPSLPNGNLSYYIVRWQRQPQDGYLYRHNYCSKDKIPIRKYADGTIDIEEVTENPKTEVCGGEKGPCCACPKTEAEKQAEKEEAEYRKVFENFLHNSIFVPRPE
Chain of Hybrid-R (P08069 741-1367 limits assumed): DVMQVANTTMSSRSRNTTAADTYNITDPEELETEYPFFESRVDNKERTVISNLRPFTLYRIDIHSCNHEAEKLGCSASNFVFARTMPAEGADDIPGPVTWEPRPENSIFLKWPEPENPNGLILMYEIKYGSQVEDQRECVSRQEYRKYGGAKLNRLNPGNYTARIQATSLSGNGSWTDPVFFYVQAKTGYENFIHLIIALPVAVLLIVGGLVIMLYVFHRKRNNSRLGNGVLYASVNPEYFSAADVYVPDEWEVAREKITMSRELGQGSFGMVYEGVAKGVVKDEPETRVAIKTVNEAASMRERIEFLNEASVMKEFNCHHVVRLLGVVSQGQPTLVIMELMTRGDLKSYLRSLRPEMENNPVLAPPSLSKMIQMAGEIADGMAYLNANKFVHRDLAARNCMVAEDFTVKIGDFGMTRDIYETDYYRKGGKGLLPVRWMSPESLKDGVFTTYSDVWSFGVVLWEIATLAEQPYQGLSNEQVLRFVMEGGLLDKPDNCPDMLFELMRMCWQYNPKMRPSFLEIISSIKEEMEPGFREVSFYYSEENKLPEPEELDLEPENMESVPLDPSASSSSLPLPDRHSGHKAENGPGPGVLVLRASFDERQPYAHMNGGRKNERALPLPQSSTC

Substance | inhibition of IGF1-induced proliferation of MCF-7 cells [1] | inhibition of IGF1-induced entry into the cell cycle [2] | immunoprecipitation of IR [3] | potentiation of doxorubicin-induced cell death [4] | inhibition of A549 tumor growth in vivo, murine versus humanized antibody [5] | inhibition of A549 tumor growth in vivo ([5]; 250 μg/dose/mouse twice per week i.p.) | recognition of Hybrid-R by immunoprecipitation [6]
7C10: murine monoclonal anti-IGF-IR IgG1 secreted by the hybridoma deposited at the CNCM under the number I-2717 | significantly inhibits the growth | significant inhibition of the entry into the cycle | Neither 7C10 nor h7C10 appreciably immunoprecipitate IR | significant increase in cell death | significant inhibition of the tumor growth | significant activity; also recorded: as active as the conventional treatment with navelbine; also recorded: significant decrease in the tumor growth | recognizes Hybrid-R
h7C10: humanized 7C10 anti-IGF-IR antibody, isotype IgG1 (humanized 1 written 7H2HM) | perfectly preserved their properties of inhibiting the IGF1-induced growth | significant inhibition of the entry into the cycle | Neither 7C10 nor h7C10 appreciably immunoprecipitate IR | same effect | exactly the same intensity as that observed with its murine counterpart | – | recognizes Hybrid-R
